Active and inactive are the calls of the source. No rule for the calls is given here.
Test system: CCRIS mutagenicity, Ames/micronucleus/aberration tests
Assay: CCRIS mutagenicity studies
[1] = Test System: AMES SALMONELLA TYPHIMURIUM, Strain/Indicator: TA98, Metabolic Activation: NONE, Method: STANDARD PLATE
[2] = Test System: AMES SALMONELLA TYPHIMURIUM, Strain/Indicator: TA100, Metabolic Activation: NONE, Method: STANDARD PLATE

## Fc1cccc2cc3c(cc12)-c1cccc2cccc-3c12
Test System: AMES SALMONELLA TYPHIMURIUM, Strain/Indicator: TA100, Metabolic Activation: RAT, LIVER, S-9, AROCLOR 1254, Method: STANDARD PLATE
  mutagenic call: active; positive

## CN(C)c1ccc(C(=C2C=CC(=[N+](C)C)C=C2)c2ccccc2)cc1
End Point: IN VIVO MICRONUCLEUS, Test System: PERIPHERAL BLOOD ERYTHROCYTES, Species: MOUSE, Strain/Sex: BIG BLUE B6C3F1/FEMALE, Route: DIET
  mutagenic call: inactive; negative
Test System: AMES SALMONELLA TYPHIMURIUM, Strain/Indicator: TA97A, Metabolic Activation: NONE, Method: STANDARD PLATE
  mutagenic call: inactive; negative
Test System: AMES SALMONELLA TYPHIMURIUM, Strain/Indicator: TA97A, Metabolic Activation: RAT LIVER S-9, 3-METHYLCHOLANTHRENE, PHENOBARBITAL, Method: STANDARD PLATE
  mutagenic call: inactive; negative
[1]
  mutagenic call: inactive; negative
Test System: AMES SALMONELLA TYPHIMURIUM, Strain/Indicator: TA98, Metabolic Activation: RAT LIVER S-9, 3-METHYLCHOLANTHRENE, PHENOBARBITAL, Method: STANDARD PLATE
  mutagenic call: inactive; negative
Test System: AMES SALMONELLA TYPHIMURIUM, Strain/Indicator: TA98, Metabolic Activation: RAT, LIVER, S-9, Method: STANDARD PLATE
  mutagenic call: active; positive
[2]
  mutagenic call: inactive; negative
Test System: AMES SALMONELLA TYPHIMURIUM, Strain/Indicator: TA100, Metabolic Activation: RAT LIVER S-9, 3-METHYLCHOLANTHRENE, PHENOBARBITAL, Method: STANDARD PLATE
  mutagenic call: inactive; negative
Test System: AMES SALMONELLA TYPHIMURIUM, Strain/Indicator: TA100, Metabolic Activation: RAT, LIVER, S-9, Method: STANDARD PLATE
  mutagenic call: inactive; negative
Test System: AMES SALMONELLA TYPHIMURIUM, Strain/Indicator: TA100, Method: PREINCUBATION
  mutagenic call: active; positive
Test System: AMES SALMONELLA TYPHIMURIUM, Strain/Indicator: TA102, Metabolic Activation: NONE, Method: STANDARD PLATE
  mutagenic call: inactive; negative
Test System: AMES SALMONELLA TYPHIMURIUM, Strain/Indicator: TA102, Metabolic Activation: RAT LIVER S-9, 3-METHYLCHOLANTHRENE, PHENOBARBITAL, Method: STANDARD PLATE
  mutagenic call: inactive; negative
Test System: AMES SALMONELLA TYPHIMURIUM, Strain/Indicator: TA1535, Metabolic Activation: NONE, Method: STANDARD PLATE
  mutagenic call: inactive; negative
Test System: AMES SALMONELLA TYPHIMURIUM, Strain/Indicator: TA1535, Metabolic Activation: RAT, LIVER, S-9, Method: STANDARD PLATE
  mutagenic call: inactive; negative
Test System: AMES SALMONELLA TYPHIMURIUM, Strain/Indicator: TA1537, Metabolic Activation: NONE, Method: STANDARD PLATE
  mutagenic call: inactive; negative
Test System: AMES SALMONELLA TYPHIMURIUM, Strain/Indicator: TA1537, Metabolic Activation: RAT, LIVER, S-9, Method: STANDARD PLATE
  mutagenic call: inactive; negative
Test System: CHO/HGPRT, Strain/Indicator: CHO-K1, Metabolic Activation: NONE, Method: STANDARD PLATE
  mutagenic call: inactive; negative
Test System: CHO/HGPRT, Strain/Indicator: CHO-K1, Metabolic Activation: RAT LIVER S-9, 3-METHYLCHOLANTHRENE, PHENOBARBITAL, Method: STANDARD PLATE
  mutagenic call: inactive; negative

## O=[N+]([O-])c1c(Cl)c(Cl)c2c(c1Cl)Oc1cc(Cl)c(Cl)cc1O2
[1]
  mutagenic call: active; positive
Test System: AMES SALMONELLA TYPHIMURIUM, Strain/Indicator: TA98, Metabolic Activation: RAT, LIVER, S-9, AROCLOR, Method: STANDARD PLATE
  mutagenic call: active; positive
[2]
  mutagenic call: inactive; negative
Test System: AMES SALMONELLA TYPHIMURIUM, Strain/Indicator: TA100, Metabolic Activation: RAT, LIVER, S-9, AROCLOR, Method: STANDARD PLATE
  mutagenic call: active; positive

## CC\C=C/C=C\C=C/C=C\C=C/OCC(O)CO (stereo not drawn)
[1]
  mutagenic call: active; positive
[2]
  mutagenic call: active; positive
Test System: AMES SALMONELLA TYPHIMURIUM, Strain/Indicator: TA104, Metabolic Activation: NONE, Method: STANDARD PLATE
  mutagenic call: active; positive

## CCCCCCCCCCCCCCCc1cccc(O)c1C(=O)O
End Point: In vivo micronucleus, Test System: Peripheral blood erythrocytes, Species: Mouse, Strain/Sex: CD-1, Route: Oral
  mutagenic call: inactive; negative

## C=C(CC)C(=O)c1ccc(OCC(=O)O)c(Cl)c1Cl
Test System: AMES SALMONELLA TYPHIMURIUM, Strain/Indicator: TA97, Metabolic Activation: HAMSTER, LIVER, S-9, AROCLOR 1254 (10 OR 30%), Method: PREINCUBATION
  mutagenic call: inactive; negative
Test System: AMES SALMONELLA TYPHIMURIUM, Strain/Indicator: TA97, Metabolic Activation: NONE, Method: PREINCUBATION
  mutagenic call: inactive; negative
Test System: AMES SALMONELLA TYPHIMURIUM, Strain/Indicator: TA97, Metabolic Activation: RAT, LIVER, S-9, AROCLOR 1254 (10 OR 30%), Method: PREINCUBATION
  mutagenic call: inactive; negative
Test System: AMES SALMONELLA TYPHIMURIUM, Strain/Indicator: TA98, Metabolic Activation: HAMSTER, LIVER, S-9, AROCLOR 1254 (10 OR 30%), Method: PREINCUBATION
  mutagenic call: inactive; negative
Test System: AMES SALMONELLA TYPHIMURIUM, Strain/Indicator: TA98, Metabolic Activation: NONE, Method: PREINCUBATION
  mutagenic call: inactive; negative
Test System: AMES SALMONELLA TYPHIMURIUM, Strain/Indicator: TA98, Metabolic Activation: RAT, LIVER, S-9, AROCLOR 1254 (10 OR 30%), Method: PREINCUBATION
  mutagenic call: inactive; negative
Test System: AMES SALMONELLA TYPHIMURIUM, Strain/Indicator: TA100, Metabolic Activation: HAMSTER, LIVER, S-9, AROCLOR 1254 (10 OR 30%), Method: PREINCUBATION
  mutagenic call: inactive; negative
Test System: AMES SALMONELLA TYPHIMURIUM, Strain/Indicator: TA100, Metabolic Activation: NONE, Method: PREINCUBATION
  mutagenic call: inactive; negative
Test System: AMES SALMONELLA TYPHIMURIUM, Strain/Indicator: TA100, Metabolic Activation: RAT, LIVER, S-9, AROCLOR 1254 (10 OR 30%), Method: PREINCUBATION
  mutagenic call: inactive; negative
Test System: AMES SALMONELLA TYPHIMURIUM, Strain/Indicator: TA1535, Metabolic Activation: HAMSTER, LIVER, S-9, AROCLOR 1254 (10 OR 30%), Method: PREINCUBATION
  mutagenic call: inactive; negative
Test System: AMES SALMONELLA TYPHIMURIUM, Strain/Indicator: TA1535, Metabolic Activation: NONE, Method: PREINCUBATION
  mutagenic call: inactive; negative
Test System: AMES SALMONELLA TYPHIMURIUM, Strain/Indicator: TA1535, Metabolic Activation: RAT, LIVER, S-9, AROCLOR 1254 (10 OR 30%), Method: PREINCUBATION
  mutagenic call: inactive; negative

## CCOC(=O)N(C)C
Test System: AMES SALMONELLA TYPHIMURIUM, Strain/Indicator: TA98, Metabolic Activation: NONE
  mutagenic call: inactive; negative
Test System: AMES SALMONELLA TYPHIMURIUM, Strain/Indicator: TA100, Metabolic Activation: NONE
  mutagenic call: inactive; negative
Test System: AMES SALMONELLA TYPHIMURIUM, Strain/Indicator: TA1535, Metabolic Activation: NONE
  mutagenic call: active; positive
Test System: AMES SALMONELLA TYPHIMURIUM, Strain/Indicator: TA1535, Metabolic Activation: S-9, AROCLOR 1254
  mutagenic call: active; positive

Reference: PubChem BioAssay AID1259407 (Chemical Carcinogenesis Research Information System (CCRIS), 2018)
